In ChEMBL document CHEMBL5050844 (2019):

Assays:
[1] = target: T1, E3 ubiquitin-protein ligase CBL-B (Homo sapiens, UniProt Q13191); assay: Inhibition of N-terminal Avi-tagged human CBL-B (36 to 427 residues) incubated with 60 nM Src kinase for 1.5 hrs followed by incubation with fluorescently labeled UbcH5B-Ub for 1 hr and measured by TR-FRET assay; type: single protein
[2] = Induction of anti-CD3/CD28 antibodies-stimulated human T cell activation at 4 uM assessed fold increase in CD25 expression measured by ELISA assay; type: functional, T cell line
[3] = Induction of anti-CD3/CD28 antibodies-stimulated human T cell activation at 0.3 uM assessed fold increase in CD25 expression measured by ELISA assay; type: functional, T cell line
[4] = Induction of anti-CD3 antibodies-stimulated human T cell activation at 1 uM assessed fold increase in IL-2 secretion measured by ELISA assay; type: functional, T cell line; note: reference of the scale not given here
[5] = target: T1, E3 ubiquitin-protein ligase CBL-B; assay: Binding affinity towards N-terminal biotinylated Avi-tagged human CBL-B (36 to 427 residues) measured by surface plasmon resonance assay
[6] = Induction of anti-CD3/CD28 antibodies-stimulated human T cell activation at 4 uM assessed fold increase in IL-2 secretion measured by ELISA assay; type: functional, T cell line
[7] = Induction of anti-CD3 antibodies-stimulated human T cell activation at 1 uM assessed fold increase in CD25 expression measured by ELISA assay; type: functional, T cell line; note: reference of the scale not given here
[8] = Induction of anti-CD3/CD28 antibodies-stimulated human T cell activation at 0.3 uM assessed fold increase in IL-2 secretion measured by ELISA assay; type: functional, T cell line
[9] = Induction of anti-CD3 antibodies-stimulated human T cell activation at 8 uM assessed fold increase in IL-2 secretion measured by ELISA assay; type: functional, T cell line; note: reference of the scale not given here
[10] = Induction of anti-CD3/CD28 antibodies-stimulated human T cell activation at 1 uM assessed fold increase in IL-2 secretion measured by ELISA assay; type: functional, T cell line
[11] = Induction of anti-CD3/CD28 antibodies-stimulated human T cell activation at 1 uM assessed fold increase in CD25 expression measured by ELISA assay; type: functional, T cell line
[12] = Induction of anti-CD3 antibodies-stimulated human T cell activation at 8 uM assessed fold increase in CD25 expression measured by ELISA assay; type: functional, T cell line; note: reference of the scale not given here

T1 sequence (Q13191 whole entry, the tested form may be a part): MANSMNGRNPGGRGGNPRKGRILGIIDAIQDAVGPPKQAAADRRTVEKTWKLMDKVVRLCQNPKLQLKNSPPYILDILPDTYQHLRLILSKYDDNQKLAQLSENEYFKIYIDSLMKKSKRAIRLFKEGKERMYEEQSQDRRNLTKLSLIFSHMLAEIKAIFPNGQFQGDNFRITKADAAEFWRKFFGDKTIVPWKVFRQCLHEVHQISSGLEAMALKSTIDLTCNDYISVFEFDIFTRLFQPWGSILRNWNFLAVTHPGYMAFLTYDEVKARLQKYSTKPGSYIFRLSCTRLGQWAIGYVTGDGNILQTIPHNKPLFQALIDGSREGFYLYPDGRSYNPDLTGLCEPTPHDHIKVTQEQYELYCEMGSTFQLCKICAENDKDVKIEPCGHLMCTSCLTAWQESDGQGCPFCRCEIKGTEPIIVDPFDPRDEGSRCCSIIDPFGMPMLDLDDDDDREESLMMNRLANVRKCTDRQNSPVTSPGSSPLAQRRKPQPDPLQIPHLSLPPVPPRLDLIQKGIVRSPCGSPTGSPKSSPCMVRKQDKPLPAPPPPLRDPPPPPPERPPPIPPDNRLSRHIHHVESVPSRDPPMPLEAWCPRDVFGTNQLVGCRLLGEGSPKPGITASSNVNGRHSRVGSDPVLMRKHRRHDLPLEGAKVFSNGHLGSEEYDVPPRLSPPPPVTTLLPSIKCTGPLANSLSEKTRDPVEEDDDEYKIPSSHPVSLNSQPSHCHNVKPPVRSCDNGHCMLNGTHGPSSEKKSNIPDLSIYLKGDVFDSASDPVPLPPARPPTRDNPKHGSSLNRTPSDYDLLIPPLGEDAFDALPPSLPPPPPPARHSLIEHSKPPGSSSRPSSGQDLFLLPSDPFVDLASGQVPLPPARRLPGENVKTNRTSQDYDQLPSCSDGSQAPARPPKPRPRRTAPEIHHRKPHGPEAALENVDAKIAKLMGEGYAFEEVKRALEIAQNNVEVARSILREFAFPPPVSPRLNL

Row | SMILES | IC50 [1] [nM] | Kd [5] [nM] | fold change (FC) [2] | fold change (FC) [3] | fold change (FC) [4] | fold change (FC) [6] | fold change (FC) [7] | fold change (FC) [8] | fold change (FC) [9] | fold change (FC) [10] | fold change (FC) [11] | fold change (FC) [12]
1 | C[C@H](Cc1nncn1C)c1cccc(N2Cc3c(cc(CN4CCC(F)(F)C4)cc3C(F)(F)F)C2=O)c1 | < 100 | < 100 | 1.31 | 1.01 | 0.151 | >=7.5 | >=1.001 | 2.51 | >=0.201 | 5 | 1.01 | >=1.001
2 | C[C@H](Cc1nncn1C)c1cccc(N2Cc3c(cc(CN4CC[C@@H](F)C4)cc3C(F)(F)F)C2=O)c1 | < 100 | < 100 | 1.31 | 1.01 | >=0.201 | >=7.5 | >=1.001 | 5 | >=0.201 | >=7.5 | 1.01 | >=1.001
3 | Cn1cnnc1CC(C)(C)c1cccc(N2Cc3c(cc(C4CC4)cc3C(F)(F)F)C2=O)c1 | < 100 | < 100 | 1.31 | 1.01 | 0.101 | 5 | 0.801 | 1.01 | >=0.201 | 2.51 | 1.01 | >=1.001
4 | CC1C=NN=C1C[C@@H](C)c1cccc(N2Cc3c(cc(C(=O)N4C[C@@H](O)C[C@H]4C)cc3C(F)(F)F)C2=O)c1 (stereo partly specified) | < 100 | < 100 | 1.31 | 1.01 | 0.151 | >=7.5 | >=1.001 | 1.01 | >=0.201 | 2.51 | 1.01 | >=1.001
5 | C[C@H](Cc1nncn1C)c1cccc(N2Cc3c(cc(C(=O)N4CC[C@H](O)C4)cc3C(F)(F)F)C2=O)c1 | < 100 | < 100 | 1.31 | 1.01 | 0.151 | >=7.5 | 0.801 | 1.01 | >=0.201 | 2.51 | 1.01 | >=1.001
6 | Cn1cnnc1CC1(c2cccc(N3Cc4c(cc(CN5CCC(F)(F)C5)cc4C(F)(F)F)C3=O)c2)COC1 | < 100 | < 100 | 1.01 | 1.01 | >=0.201 | >=7.5 | >=1.001 | 2.51 | >=0.201 | >=7.5 | 1.01 | >=1.001
7 | Cn1cnnc1C(F)(F)[C@](C)(F)c1cccc(N2Cc3c(cc(CN4CC[C@@H](S(C)(=O)=O)C4)cc3C(F)(F)F)C2=O)c1 | < 100 | < 100 | 1.31 | 1.01 | 0.151 | >=7.5 | 0.801 | 2.51 | >=0.201 | 5 | 1.01 | >=1.001
8 | C[C@@H]1[C@@H](c2nncn2C)[C@H]1c1cccc(N2Cc3c(cccc3C(F)(F)F)C2=O)c1 | < 100 | < 100 | 1.31 | >=1.76 | 0.101 | 5 | >=1.001 | >=7.5 | >=0.201 | 2.51 | 1.01 | >=1.001
9 | C[C@H](CC1=NN=CC1C(F)(F)F)c1cccc(N2Cc3c(cc(C(=O)N4CC[C@H](O)C4)cc3C(F)(F)F)C2=O)c1 (stereo partly specified) | < 100 | < 100 | 1.01 | 1.01 | 0.051 | 2.51 | 0.801 | 1.01 | 0.151 | 1.01 | 1.01 | >=1.001

Continued, in another order:

Row | IC50 [1] [nM] | Kd [5] [nM] | SMILES | fold change (FC) [2] | fold change (FC) [3] | fold change (FC) [4] | fold change (FC) [6] | fold change (FC) [7] | fold change (FC) [8] | fold change (FC) [9] | fold change (FC) [10] | fold change (FC) [11] | fold change (FC) [12]
10 | < 100 | < 100 | Cc1n[nH]c(C)c1-c1cc2c(c(C(F)(F)F)c1)CN(c1cccc([C@H](C)Cc3nncn3C)c1)C2=O | >=1.76 | 1.31 | >=0.201 | >=7.5 | >=1.001 | 2.51 | >=0.201 | >=7.5 | 1.51 | >=1.001
11 | < 100 | < 100 | CC(C)Nc1cc([C@H](C)Cc2nncn2C)cc(N2Cc3c(cccc3C(F)(F)F)C2=O)n1 | 1.31 | 1.01 | 0.101 | >=7.5 | 0.801 | 1.01 | >=0.201 | 2.51 | 1.01 | >=1.001
12 | < 100 | < 100 | CNc1cc([C@H](C)Cc2nncn2C)cc(N2Cc3c(cccc3C(F)(F)F)C2=O)n1 | 1.31 | 1.01 | 0.051 | 5 | 0.601 | 1.01 | 0.151 | 1.01 | 1.01 | >=1.001
13 | < 100 | < 100 | CCOc1cc([C@H](C)Cc2nncn2C)cc(N2Cc3c(cccc3C(F)(F)F)C2=O)n1 | 1.31 | 1.01 | 0.151 | >=7.5 | >=1.001 | 2.51 | >=0.201 | 5 | 1.31 | >=1.001
14 | < 100 | < 100 | C[C@H](Cc1nncn1C)c1cccc(N2Cc3c(cc(N[C@H]4CCNC4)cc3C(F)(F)F)C2=O)c1 | 1.01 | 1.01 | 0.101 | 2.51 | 0.801 | 1.01 | 0.151 | 2.51 | 1.01 | >=1.001
15 | < 100 | < 100 | CCNc1cc([C@H](C)Cc2nncn2C)cc(N2Cc3c(cccc3C(F)(F)F)C2=O)n1 | 1.51 | 1.31 | >=0.201 | >=7.5 | >=1.001 | 2.51 | >=0.201 | >=7.5 | 1.51 | >=1.001
16 | < 100 | < 100 | Cc1[nH]ncc1-c1cc2c(c(C(F)(F)F)c1)CN(c1cccc([C@H](C)Cc3nncn3C)c1)C2=O | 1.51 | 1.31 | 0.151 | >=7.5 | 0.801 | 2.51 | >=0.201 | 5 | 1.51 | >=1.001
17 | < 100 | < 100 | C[C@H](Cc1nncn1C)c1cccc(N2Cc3c(cc(CN4CC(F)C4)cc3C(F)(F)F)C2=O)c1 | 1.31 | 1.01 | 0.151 | >=7.5 | >=1.001 | 2.51 | >=0.201 | >=7.5 | 1.01 | >=1.001
18 | < 100 | < 100 | C[C@H](Cc1nncn1C)c1cccc(N2Cc3c(cc(N(C)[C@H]4CCNC4)cc3C(F)(F)F)C2=O)c1 | 1.51 | 1.31 | 0.151 | >=7.5 | 0.801 | 2.51 | >=0.201 | 2.51 | 1.31 | >=1.001
